Test results reported in patent US6610675B1 (priority 1980, dated 2003).

How the values were obtained:
Type in all cases: in vivo, rat
[1] = test system: ear swelling induced by croton oil; assay: Ear edema test; conditions: 1 mg/kg topical, 6 hr
Description: The test animals were Sprague/Dawley rats weighing approximately 150 grams each. In treatment groups, selected amounts of the test compound were dissolved in acetone containing 5% croton oil and 50 microliters of the solution were applied to the inner surface of the right ear of the rats. A control group was identically treated with vehicle only, i.e. 5% croton oil in acetone. Six hours after croton oil challenge, a constant region of each ear was removed by dissection under anesthesia. Then, 48 hours after steroid treatment, the animals were sacrificed and the thymi and adrenals were removed and weighed. The test results showing the inhibitory effect of topically applied steroids on the ear swelling induced by croton oil are summarized in Table II below.

[2] = test system: granulation tissue formation caused by implantation of cotton pellets; assay: Granuloma formation test (local cotton pellet granuloma assay)
Description: The test compound was dissolved in acetone and aliquots of varying concentrations were injected into cotton pellets. The pellets were dried and then one pellet was implanted beneath the skin of each test rat. Six days later, the animals were sacrificed and the granulation tissue (granuloma) which formed in and around the implanted pellet was removed, dried and weighed. In addition, the thymi and adrenals were removed and weighed.

thymus weight in rats = assay: Thymus inhibition testing (subcutaneous administration); conditions: for Body weight gain / Thymus / Thymus Inhibition: Table VII, three days
Summary of the method: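 Male Sprague-Dawley rats were dosed systemically. On the fifth day, 48 hours after the last treatment, animals were sacrificed and thymus weights recorded.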

With `CCCC(=O)O[C@]1(C(=O)CO)CC[C@H]2[C@@H]3CCC4=CC(=O)CC[C@]4(C)[C@H]3[C@@H](O)C[C@@]21C` [Hydrocortisone 17-butyrate, reference compound] the “Ear Weight, % Increase” value [1] was −3.6 ± 3.5 %, the “Ear Weight, % Inhibition” value [1] was 106.0% and the “Ear Weight, Inflamed Ear” value [1] was 50.0 ± 2.3 mg. For the same molecule, the “Ear Weight, Untreated Ear” value [1] was 52.0 ± 2.5 mg, the Body wt. gain ([2]; Table III, 1 mg/pellet) was 33.4 ± 1.4 g and the “Granulation tissue Dry wt.” value ([2]; Table III, 1 mg/pellet) was 32.2 ± 5.0 mg/100 g body wt. The “Granulation tissue Inhibition” value ([2]; Table III, 1 mg/pellet) was 26.3%, the Body wt. gain ([2]; Table III, 3 mg/pellet) was 15.9 ± 1.4 g and the “Granulation tissue Dry wt.” value ([2]; Table III, 3 mg/pellet) was 21.6 ± 2.2 mg/100 g body wt. The “Granulation tissue Inhibition” value ([2]; Table III, 3 mg/pellet) was 50.6%, the Body wt. gain ([2]; Table III, 10 mg/pellet) was 4.9 ± 1.0 g and the “Granulation tissue Dry wt.” value ([2]; Table III, 10 mg/pellet) was 29.2 ± 3.1 mg/100 g body wt. For the same molecule, the “Granulation tissue Inhibition” value ([2]; Table III, 10 mg/pellet) was 33.2%, the Body wt. gain ([2]; Table IV, 300 μg/pellet) was 26.2 ± 1.7 g and the “Granulation tissue Dry wt.” value ([2]; Table IV, 300 μg/pellet) was 34.0 ± 5.3 mg. For the same molecule, the “Granulation tissue Dry wt. Inhibition” value ([2]; Table IV, 300 μg/pellet) was 58.1%, the “Granulation tissue Wet wt.” value ([2]; Table IV, 300 μg/pellet) was 333 ± 21 mg and the “Granulation tissue Wet wt. Inhibition” value ([2]; Table IV, 300 μg/pellet) was 41.2%. The Thymus wt. ([2]; Table IV, 300 μg/pellet) was 353 ± 37 mg, the “Thymus wt. (Decrease %)” value ([2]; Table IV, 300 μg/pellet) was “(20.7) %” and the Body wt. gain ([2]; Table IV, 1000 μg/pellet) was 26.2 ± 1.2 g. The “Granulation tissue Dry wt.” value ([2]; Table IV, 1000 μg/pellet) was 35.3 ± 4.2 mg, the “Granulation tissue Dry wt. Inhibition” value ([2]; Table IV, 1000 μg/pellet) was 56.5% and the “Granulation tissue Wet wt.” value ([2]; Table IV, 1000 μg/pellet) was 366 ± 24 mg. For the same molecule, the “Granulation tissue Wet wt. Inhibition” value ([2]; Table IV, 1000 μg/pellet) was 35.3%, the Thymus wt. ([2]; Table IV, 1000 μg/pellet) was 99 ± 7 mg and the “Thymus wt. (Decrease %)” value ([2]; Table IV, 1000 μg/pellet) was “(77.8) %”. The Body wt. gain ([2]; Table IV, 3000 μg/pellet) was 6.7 ± 2.2 g, the “Granulation tissue Dry wt.” value ([2]; Table IV, 3000 μg/pellet) was 28.0 ± 2.7 mg and the “Granulation tissue Dry wt. Inhibition” value ([2]; Table IV, 3000 μg/pellet) was 65.5%. For the same molecule, the “Granulation tissue Wet wt.” value ([2]; Table IV, 3000 μg/pellet) was 329 ± 14 mg, the “Granulation tissue Wet wt. Inhibition” value ([2]; Table IV, 3000 μg/pellet) was 41.9% and the Thymus wt. ([2]; Table IV, 3000 μg/pellet) was 58 ± 5 mg. The “Thymus wt. (Decrease %)” value ([2]; Table IV, 3000 μg/pellet) was “(87.0) %”, the Body wt. gain ([2]; Table IV, 10000 μg/pellet) was -2.0 ± 2.4 g and the “Granulation tissue Dry wt.” value ([2]; Table IV, 10000 μg/pellet) was 27.2 ± 2.4 mg. The “Granulation tissue Dry wt. Inhibition” value ([2]; Table IV, 10000 μg/pellet) was 66.5%, the “Granulation tissue Wet wt.” value ([2]; Table IV, 10000 μg/pellet) was 311 ± 7 mg and the “Granulation tissue Wet wt. Inhibition” value ([2]; Table IV, 10000 μg/pellet) was 45.1%. The Thymus wt. ([2]; Table IV, 10000 μg/pellet) was 46 ± 7 mg, the “Thymus wt. (Decrease %)” value ([2]; Table IV, 10000 μg/pellet) was “(89.7) %” and the ED50 ([2]; Table XII, anti-inflammatory effect in cotton pellet granuloma) was 480 μg/pellet. The ED60 ([2]; dose causing 60% inhibition of granulation tissue weight) was 1015 μg/pellet, the Body weight gain (thymus weight in rats; 0.3 mg/kg/day s.c.) was 17.0 ± 0.8 g and the Thymus (thymus weight in rats; 0.3 mg/kg/day s.c.) was 441 ± 27 mg. The “Thymus Inhibition” value (thymus weight in rats; 0.3 mg/kg/day s.c.) was 6.4%, the Body weight gain (thymus weight in rats; 1 mg/kg/day s.c.) was 11.8 ± 0.8 g and the Thymus (thymus weight in rats; 1 mg/kg/day s.c.) was 323 ± 16 mg. For the same molecule, the “Thymus Inhibition” value (thymus weight in rats; 1 mg/kg/day s.c.) was 31.4%, the Body weight gain (thymus weight in rats; 3 mg/kg/day s.c.) was 7.3 ± 0.5 g and the Thymus (thymus weight in rats; 3 mg/kg/day s.c.) was 166 ± 5 mg. For the same molecule, the “Thymus Inhibition” value (thymus weight in rats; 3 mg/kg/day s.c.) was 64.8%, the Body weight gain (thymus weight in rats; 10 mg/kg/day s.c.) was -5.0 ± 1.1 g and the Thymus (thymus weight in rats; 10 mg/kg/day s.c.) was 65 ± 5 mg. For the same molecule, the “Thymus Inhibition” value (thymus weight in rats; 10 mg/kg/day s.c.) was 86.2%, the TED40 (thymus weight in rats; Table X, dose required to achieve 40% inhibition of thymi weight, subcutaneous) was 1.3 mg and the TED50 (thymus weight in rats; Table X, dose required to achieve 50% inhibition of thymi weight, subcutaneous) was 2.0 mg. The TED40 (thymus weight in rats; Table XII, thymus inhibition effect, subcutaneously) was 1.3 mg/kg.
